Reference: ChEMBL document CHEMBL4393739, “Design, synthesis and anti-inflammatory evaluation of novel pyrrolo[2,3-d]pyrimidin derivatives as potent JAK inhibitors” (Bioorg Med Chem, 2019)
Activity calls are given as the source filed them. The calls are words filed in the database; no cut-off is given here.

Tests used:
[1] = Solubility of the compound; type: physicochemical
[2] = target: Tyrosine-protein kinase JAK1 (Homo sapiens) (UniProt P23458); conditions: at 10 µM
RAW264.7 [3] = assay: Antiinflammatory activity in LPS-induced mouse RAW264.7 cells assessed as reduction in NO generation by measuring NO level at 2.5 ug/ml measured after 18 hrs by Griess method; type: functional, cell-based
RAW264.7 [4] = assay: Antiinflammatory activity in LPS-induced mouse RAW264.7 cells assessed as reduction in NO generation by measuring NO level at 5 ug/ml measured after 18 hrs by Griess method; type: functional, cell-based
RAW264.7 [5] = assay: Antiinflammatory activity in LPS-induced mouse RAW264.7 cells assessed as reduction in NO generation by measuring NO level at 10 ug/ml measured after 18 hrs by Griess method; type: functional, cell-based
RAW264.7 [6] = assay: Antiinflammatory activity in mouse RAW264.7 cells assessed as reduction in LPS-induced JAK1 expression by Western blot analysis; type: functional, cell-based
RAW264.7 [7] = assay: Antiinflammatory activity in LPS-induced mouse RAW264.7 cells assessed as protection against cell damage by measuring reduction in cell rounding at 10 ug/ml co-treated with LPS measured after 18 hrs by light microscopy; type: functional, cell-based
RAW264.7 [8] = assay: Cytotoxicity against mouse RAW264.7 cells assessed as cell growth inhibition measured after 24 hrs by MTT assay; type: cell-based; conditions: for IC50: Mus musculus, RAW264.7, 24 h; for Activity: mouse, raw264.7, 24 h
RAW264.7 [9] = assay: Antiinflammatory activity in LPS-induced mouse RAW264.7 cells assessed as protection against cell damage by measuring reduction in apoptotic body formation at 10 ug/ml cotreated with LPS measured after 18 hrs by light microscopy; type: functional, cell-based
RAW264.7 [10] = assay: Antiinflammatory activity in mouse RAW264.7 cells assessed as reduction in LPS-induced JAK2 expression by Western blot analysis; type: functional, cell-based
RAW264.7 [11] = assay: Antiinflammatory activity in mouse RAW264.7 cells assessed as reduction in LPS-induced upregulation of IL-1 beta expression by Western blot analysis; type: functional, cell-based
RAW264.7 [12] = assay: Antiinflammatory activity in LPS-induced mouse RAW264.7 cells assessed as protection against cell damage by measuring reduction in cell shrinking at 10 ug/ml cotreated with LPS measured after 18 hrs by light microscopy; type: functional, cell-based

Tyrosine-protein kinase JAK1 (Homo sapiens), sequence (P23458 whole entry): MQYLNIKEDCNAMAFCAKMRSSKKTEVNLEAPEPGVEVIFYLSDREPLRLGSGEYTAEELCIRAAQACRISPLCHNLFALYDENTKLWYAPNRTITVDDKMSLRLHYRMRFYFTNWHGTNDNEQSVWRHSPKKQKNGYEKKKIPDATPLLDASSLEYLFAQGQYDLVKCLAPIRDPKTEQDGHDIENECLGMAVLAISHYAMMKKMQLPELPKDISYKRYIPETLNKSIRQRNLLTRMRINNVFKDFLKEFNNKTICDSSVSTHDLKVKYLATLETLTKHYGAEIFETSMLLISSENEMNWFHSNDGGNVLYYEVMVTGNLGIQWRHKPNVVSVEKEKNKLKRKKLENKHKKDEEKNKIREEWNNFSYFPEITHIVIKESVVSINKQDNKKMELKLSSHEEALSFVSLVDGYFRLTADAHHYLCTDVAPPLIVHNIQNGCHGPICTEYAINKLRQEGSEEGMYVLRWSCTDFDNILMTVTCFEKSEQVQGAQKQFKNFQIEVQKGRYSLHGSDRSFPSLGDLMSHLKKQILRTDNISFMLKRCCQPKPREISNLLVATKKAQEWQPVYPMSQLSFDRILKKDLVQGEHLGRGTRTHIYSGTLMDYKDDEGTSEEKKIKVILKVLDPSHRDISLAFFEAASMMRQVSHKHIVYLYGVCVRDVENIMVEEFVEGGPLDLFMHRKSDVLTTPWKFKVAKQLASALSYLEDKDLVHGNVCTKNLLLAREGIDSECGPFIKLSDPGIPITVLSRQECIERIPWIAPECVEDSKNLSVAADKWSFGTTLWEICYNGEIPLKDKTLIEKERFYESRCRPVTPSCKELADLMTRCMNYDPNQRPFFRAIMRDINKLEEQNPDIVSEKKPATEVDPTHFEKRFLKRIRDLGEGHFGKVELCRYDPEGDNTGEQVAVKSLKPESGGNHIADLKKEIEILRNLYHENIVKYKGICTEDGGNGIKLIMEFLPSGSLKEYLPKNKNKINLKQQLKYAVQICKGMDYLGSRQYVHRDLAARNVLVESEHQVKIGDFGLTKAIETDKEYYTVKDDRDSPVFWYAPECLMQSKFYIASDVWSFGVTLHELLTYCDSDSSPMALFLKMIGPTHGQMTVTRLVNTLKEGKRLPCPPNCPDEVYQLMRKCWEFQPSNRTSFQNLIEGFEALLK

| Structure (SMILES) | solubility [1] | inhibition [2] | further results |
| --- | --- | --- | --- |
| O=[N+]([O-])c1ccc(S(=O)(=O)N2CCC(n3cc(-c4ncnc5[nH]ccc45)cn3)CC2)cc1 | Insoluble | 99.6% | – |
| N#Cc1ccc(S(=O)(=O)N2CCC(n3cc(-c4ncnc5[nH]ccc45)cn3)CC2)cc1 | Insoluble | 72.5% | – |
| O=S(=O)(c1ccc(Br)cc1)N1CCC(n2cc(-c3ncnc4[nH]ccc34)cn2)CC1 | Insoluble | 60.3% | – |
| Cc1ccc(S(=O)(=O)N2CCC(n3cc(-c4ncnc5[nH]ccc45)cn3)CC2)cc1 | Insoluble | 92.4% | – |
| CCS(=O)(=O)N1CC(CC#N)(n2cc(-c3ncnc4[nH]ccc34)cn2)C1 | – | – | Activity (RAW264.7 [3]): Active; Activity (RAW264.7 [4]): Active; Activity (RAW264.7 [5]): Active |
| O=[N+]([O-])c1ccccc1S(=O)(=O)N1CCC(n2cc(-c3ncnc4[nH]ccc34)cn2)CC1 | Insoluble | 96.6% | Activity (RAW264.7 [3]): Active; Activity (RAW264.7 [4]): Active; Activity (RAW264.7 [5]): Active |
| O=S(=O)(c1ccc(F)cc1)N1CCC(n2cc(-c3ncnc4[nH]ccc34)cn2)CC1 | Insoluble | 93.4% | – |
| O=S(=O)(c1cc(F)cc(F)c1)N1CCC(n2cc(-c3ncnc4[nH]ccc34)cn2)CC1 | Insoluble | 93.6% | – |
| O=[N+]([O-])c1cccc(S(=O)(=O)N2CCC(n3cc(-c4ncnc5[nH]ccc45)cn3)CC2)c1 | Insoluble | 92.4% | – |
| O=S(=O)(c1ccc(Cl)cc1)N1CCC(n2cc(-c3ncnc4[nH]ccc34)cn2)CC1 | Insoluble | 63.7% | – |
| Cc1ccccc1S(=O)(=O)N1CCC(n2cc(-c3ncnc4[nH]ccc34)cn2)CC1 | Insoluble | 94.7% | – |
| O=S(=O)(c1ccccc1)N1CCC(n2cc(-c3ncnc4[nH]ccc34)cn2)CC1 | Insoluble | 2.7% | – |
| COc1ccc(S(=O)(=O)N2CCC(n3cc(-c4ncnc5[nH]ccc45)cn3)CC2)cc1 | Insoluble | 53.2% | – |
| O=S(=O)(c1cccc(Br)c1)N1CCC(n2cc(-c3ncnc4[nH]ccc34)cn2)CC1 | Insoluble | 72.8% | – |

Second part, led by results:

| solubility [1] | inhibition [2] | Structure (SMILES) | further results |
| --- | --- | --- | --- |
| – | 65.6% | O=C(CN1CCCCC1)N1CCC(n2cc(-c3ncnc4[nH]ccc34)cn2)CC1 | – |
| – | 38.6% | CCN(CC)CC(=O)N1CCC(n2cc(-c3ncnc4[nH]ccc34)cn2)CC1 | – |
| – | 46.9% | CN(C)CC(=O)N1CCC(n2cc(-c3ncnc4[nH]ccc34)cn2)CC1 | – |
| Insoluble | 22.1% | CS(=O)(=O)N1CCC(n2cc(-c3ncnc4[nH]ccc34)cn2)CC1 | – |
| Insoluble | 95.2% | CCS(=O)(=O)N1CCC(n2cc(-c3ncnc4[nH]ccc34)cn2)CC1 | – |
| – | 83% | O=C(CN1CCN(CCO)CC1)N1CCC(n2cc(-c3ncnc4[nH]ccc34)cn2)CC1 | – |
| – | 72.8% | CN1CCN(CC(=O)N2CCC(n3cc(-c4ncnc5[nH]ccc45)cn3)CC2)CC1 | – |
| – | 69.6% | O=C(CN1CCOCC1)N1CCC(n2cc(-c3ncnc4[nH]ccc34)cn2)CC1 | – |
| – | 90.3% | CC1CCN(CC(=O)N2CCC(n3cc(-c4ncnc5[nH]ccc45)cn3)CC2)CC1 | Activity (RAW264.7 [6]): Dose-dependent effect; Activity (RAW264.7 [7]): Active; Activity (RAW264.7 [3]): Active; Activity (RAW264.7 [4]): Active; IC50 (RAW264.7 [8]): 88.2 µM; Activity (RAW264.7 [8]): Dose-dependent effect; Activity (RAW264.7 [9]): Active; Activity (RAW264.7 [5]): Active; Activity (RAW264.7 [10]): Dose-dependent effect; Activity (RAW264.7 [11]): Active; Activity (RAW264.7 [12]): Active |
| – | 55.1% | O=C(CN1CCCC1)N1CCC(n2cc(-c3ncnc4[nH]ccc34)cn2)CC1 | – |
| Insoluble | 59.4% | O=S(=O)(C1CC1)N1CCC(n2cc(-c3ncnc4[nH]ccc34)cn2)CC1 | – |
| – | 92.5% | O=C(O)C1CCN(CC(=O)N2CCC(n3cc(-c4ncnc5[nH]ccc45)cn3)CC2)CC1 | Activity (RAW264.7 [6]): Dose-dependent effect; Activity (RAW264.7 [7]): Active; IC50 (RAW264.7 [8]): 80.9 µM; Activity (RAW264.7 [8]): Dose-dependent effect; Activity (RAW264.7 [9]): Active; Activity (RAW264.7 [10]): Dose-dependent effect; Activity (RAW264.7 [11]): Active; Activity (RAW264.7 [12]): Active |
